Values quoted from earlier work, collected in US20050148628A1 (priority 2002, published 2005).

Settings: in vivo

Which terminal elimination half-life does the source give for OC(c1cc(C(F)(F)F)nc2c(C(F)(F)F)cccc12)C1CCCCN1 (stereo not shown) [mefloquine] here?
Its terminal elimination half-life is 2-3 weeks.
